Measured values taken from ChEMBL document CHEMBL4311969, “Polygala tenuifolia-Acori tatarinowii herbal pair as an inspiration for substituted cinnamic α-asaronol esters: Design, synthesis, anticonvulsant activity, and inhibition of lactate dehydrogenase study” (Eur J Med Chem, 2019).
“And” between values parts separate entries of the source, which are not always exact repeats. Identical values can stand only once. The source made the active and inactive calls. The rule behind the calls is not given here.

Key:
[1] = tested on: Mus musculus; assay: Anticonvulsant activity in Kunming mouse assessed as reduction in Sc3-MP-induced clonic seizure rate at 300 mg/kg, ip administered 0.5 hrs before Sc3-MP stimulation relative to control; assay type: functional; parameters: scale not given: the % may be the effect or the level left
[2] = tested on: Mus musculus; assay: Anticonvulsant activity in Kunming mouse assessed as reduction in Sc3-MP-induced tonic seizure rate at 300 mg/kg, ip administered 0.5 hrs before Sc3-MP stimulation relative to control; assay type: functional; parameters: scale not given: the % may be the effect or the level left
[3] = tested on: Mus musculus; assay: Anticonvulsant activity in Kunming mouse assessed as MES-induced hind limb extension at 100 mg/kg, ip administered 0. 5 to 2 hrs before MES stimulation; assay type: functional, organism-based
[4] = tested on: Mus musculus; assay: Anticonvulsant activity in Kunming mouse assessed as MES-induced hind limb extension at 100 mg/kg, ip administered 3 hrs before MES stimulation; assay type: functional, organism-based
[5] = Neurotoxicity against Kunming mouse assessed as time remained in rod at 100 mg/kg, ip administered 0.5 to 2 hrs by rotarod test; assay type: toxicity, organism-based; conditions: in vivo
[6] = tested on: Mus musculus; assay: Anticonvulsant activity in Kunming mouse assessed as MES-induced hind limb extension at 50 mg/kg, ip administered 0.5 to 4 hrs before MES stimulation relative to control; assay type: functional
[7] = tested on: Mus musculus; assay: Anticonvulsant activity in Kunming mouse assessed as MES-induced hind limb extension at 50 mg/kg, ip administered 0.5 and 2 hrs before MES stimulation relative to control; assay type: functional
[8] = tested on: Mus musculus; assay: Anticonvulsant activity in Kunming mouse assessed as reduction in ScPTZ-induced seizure at 300 mg/kg, ip administered 0.25 to 2 hrs before ScPTZ stimulation relative to control; assay type: functional; parameters: scale not given: the % may be the effect or the level left
[9] = tested on: Mus musculus; assay: Anticonvulsant activity in Kunming mouse assessed as reduction in ScPTZ-induced seizure at 100 mg/kg, ip administered 0.25 to 2 hrs before ScPTZ stimulation relative to control; assay type: functional
[10] = tested on: Mus musculus; assay: Anticonvulsant activity in Kunming mouse assessed as reduction in ScPTZ-induced seizure at 100 mg/kg, ip administered 0.25 and 1 hrs before ScPTZ stimulation relative to control; assay type: functional; parameters: scale not given: the % may be the effect or the level left
[11] = tested on: Mus musculus; assay: Anticonvulsant activity in Kunming mouse assessed as reduction in ScPTZ-induced clonic seizure at 300 mg/kg, ip administered 0.5 hrs before ScPTZ stimulation relative to control; assay type: functional; parameters: scale not given: the % may be the effect or the level left
[12] = tested on: Mus musculus; assay: Anticonvulsant activity in Kunming mouse assessed as reduction in ScPTZ-induced clonic seizure at 100 mg/kg, ip administered 0.5 hrs before ScPTZ stimulation relative to control; assay type: functional; parameters: scale not given: the % may be the effect or the level left
[13] = tested on: Mus musculus; assay: Anticonvulsant activity in Kunming mouse assessed as reduction in ScPTZ-induced tonic seizure rate at 300 mg/kg, ip administered 0.5 hrs before ScPTZ stimulation relative to control; assay type: functional; parameters: scale not given: the % may be the effect or the level left
[14] = tested on: Mus musculus; assay: Anticonvulsant activity in Kunming mouse assessed as reduction in ScPTZ-induced tonic seizure rate at 100 mg/kg, ip administered 0.5 hrs before ScPTZ stimulation relative to control; assay type: functional; parameters: scale not given: the % may be the effect or the level left
[15] = tested on: Mus musculus; assay: Anticonvulsant activity in Kunming mouse assessed as reduction in ScPTZ-induced mortality rate at 300 mg/kg, ip administered 0.5 hrs before ScPTZ stimulation relative to control; assay type: functional; parameters: scale not given: the % may be the effect or the level left
[16] = tested on: Mus musculus; assay: Anticonvulsant activity in Kunming mouse assessed as reduction in Sc3-MP-induced seizure at 300 mg/kg, ip administered 0.25 and 1 hrs before Sc3-MP stimulation relative to control; assay type: functional, organism-based
[17] = tested on: Mus musculus; assay: Anticonvulsant activity in Kunming mouse assessed as reduction in Sc3-MP-induced seizure at 300 mg/kg, ip administered 0.5 hrs before Sc3-MP stimulation relative to control; assay type: functional; parameters: scale not given: the % may be the effect or the level left
[18] = tested on: Mus musculus; assay: Anticonvulsant activity in Kunming mouse assessed as reduction in Sc3-MP-induced mortality rate at 300 mg/kg, ip administered 0.5 hrs before Sc3-MP stimulation relative to control; assay type: functional; parameters: scale not given: the % may be the effect or the level left
[19] = tested on: Mus musculus; assay: Anticonvulsant activity in ip dosed Kunming mouse assessed as MES-induced hind limb extension administered 0.5 hrs before MES stimulation; assay type: functional
[20] = tested on: Mus musculus; assay: Anticonvulsant activity in ip dosed Kunming mouse assessed as reduction in ScPTZ-induced seizure administered 0.5 hrs before ScPTZ stimulation; assay type: functional
[21] = tested on: Mus musculus; assay: Anticonvulsant activity in Kunming mouse assessed as reduction in Sc3-MP-induced seizure ip dosed measured at 0.5 hrs before Sc3-MP stimulation; assay type: functional
[22] = tested on: Mus musculus; assay: […] activity in ip dosed Kunming mouse assessed as reduction in formalin-induced paw licking administered 0.5 hrs before formalin stimulation; assay type: functional
[23] = Neurotoxicity against ip dosed Kunming mouse assessed as time remained in rod measured at 0.5 hrs by rotarod test; assay type: toxicity, organism-based; conditions: in vivo
[24] = Protective index, ratio of TD50 for neurotoxicity against ip dosed Kunming mouse assessed as time remained in rod measured at 0.5 hrs by rotarod test to ED50 for anticonvulsant activity in ip dosed Kunming mouse assessed as MES-induced hind limb extension administered 0.5 hrs; assay type: toxicity, organism-based; conditions: in vivo, read-out: PI
[25] = (§1) Protective index, ratio of TD50 for neurotoxicity against ip dosed Kunming mouse assessed as time remained in rod measured at 0.5 hrs by rotarod test to ED50 for anticonvulsant activity in ip dosed Kunming mouse assessed as reduction in ScPTZ-induced seizure administered 0.5 hrs before ScPTZ stimulation; assay type: toxicity, organism-based; conditions: in vivo, read-out: PI
[26] = as §1, with “Sc3-MP-induced” for “ScPTZ-induced”, “Sc3-MP” for “ScPTZ”; assay type: toxicity, organism-based; conditions: in vivo, read-out: PI
[27] = as §1, with “formalin-induced paw licking” for “ScPTZ-induced seizure”, “formalin” for “ScPTZ”; assay type: toxicity, organism-based; conditions: in vivo, read-out: PI
[28] = species: Homo sapiens; assay: Inhibition of human LDH1 at 0.5 mM using sodium pyruvate as substrate by UV-VIS spectrophotometry method relative to control
[29] = species: Homo sapiens; assay: Inhibition of human LDH5 at 0.5 mM using sodium pyruvate as substrate by UV-VIS spectrophotometry method relative to control
[30] = tested on: Mus musculus; assay: Anticonvulsant activity in Kunming mouse assessed as MES-induced hind limb extension at 100 mg/kg, ip administered 0. 5 to 4 hrs before MES stimulation relative to control; assay type: functional
[31] = tested on: Mus musculus; assay: Anticonvulsant activity in Kunming mouse assessed as MES-induced hind limb extension at 100 mg/kg, ip administered 0. 5 hrs before MES stimulation relative to control; assay type: functional
[32] = Drug metabolism in Sprague-Dawley rat assessed as retention time by HPLC/MS analysis; assay type: ADME
[33] = tested on: Mus musculus; assay: Anticonvulsant activity in Kunming mouse assessed as reduction in ScPTZ-induced seizure at 100 mg/kg, ip administered 0.5 hrs before ScPTZ stimulation relative to control; assay type: functional; parameters: scale not given: the % may be the effect or the level left
[34] = species: Homo sapiens; assay: Inhibition of human LDH1 at 0.5 mM using sodium pyruvate as substrate measured for 60 sec for every 5 mins by LC/MS-MS analysis
[35] = species: Homo sapiens; assay: Inhibition of human LDH5 at 0.5 mM using sodium pyruvate as substrate measured for 60 sec for every 5 mins by LC/MS-MS analysis

Compound	Activity [1]	Activity [2]	Activity [3]	Activity [5]	Activity [8]	Activity [9]	Activity [11]	Activity [12]	Activity [13]	Activity [14]	ED50 [19]	ED50 [20]	ED50 [21]	ED50 [22]	TD50 at 0.5 h [23]	selectivity ratio at 0.5 h [24]	selectivity ratio at 0.5 h [25]	selectivity ratio at 0.5 h [26]	selectivity ratio at 0.5 h [27]	Activity [30]	also measured
COc1cc(OC)c(OC)cc1/C=C/COC(=O)/C=C/c1ccccc1Cl	100%	50%	Active	Non-Toxic	50%	inactive	100%	100%	25%	100%	151 µmol/kg and 58.7 mg/kg	150 mg/kg and 385 µmol/kg	248 mg/kg and 639 µmol/kg	101 mg/kg and 260 µmol/kg	> 2570 µmol/kg and > 1000 mg/kg	> 17	> 6.7	> 4	> 9.9	25 - 100%	Activity [4]: Active; Activity [6]: 50%; Activity [7]: 75%; Activity [10]: 75%; Activity [15]: 0%; Activity [16]: Active; Activity [17]: 50%; Activity [18]: 0%; inhibition [28]: < 5%; inhibition [29]: < 9%
COc1cc(OC)c(OC)cc1/C=C/COC(=O)/C=C/c1cccc(Br)c1	100%	50%	Active	Non-Toxic	50%	inactive	100%	100%	25%	100%	175 µmol/kg and 75.7 mg/kg	> 200 mg/kg and > 462 µmol/kg	215 mg/kg and 497 µmol/kg	113 mg/kg and 260 µmol/kg	> 2310 µmol/kg and > 1000 mg/kg	> 13.2	5	> 4.6	> 8.9	25 - 100%	Activity [4]: Active; Activity [7]: inactive; Activity [10]: 75%; Activity [15]: 0%; Activity [16]: Active; Activity [17]: 50%; Activity [18]: 0%; inhibition [28]: < 5%; inhibition [29]: < 9%
COc1cc(OC)c(OC)cc1/C=C/COC(=O)/C=C/c1ccc(Cl)cc1	100%	50%	Active	Non-Toxic	50%	inactive	100%	100%	25%	100%	137 µmol/kg and 53.4 mg/kg	142 mg/kg and 364 µmol/kg	> 200 mg/kg and > 514 µmol/kg	108 mg/kg and 278 µmol/kg	> 2570 µmol/kg and > 1000 mg/kg	> 18.7	> 7.1	> 6.2	> 9.3	25 - 100%	Activity [6]: 50%; Activity [10]: 75%; Activity [15]: 0%; Activity [16]: Active; Activity [17]: 50%; inhibition [28]: < 5%; inhibition [29]: < 9%
COc1cc(OC)c(OC)cc1/C=C/COC(=O)/C=C/c1ccc(OC)c(OC)c1OC	100%	75%	Active	Non-Toxic	50%	inactive	100%	100%	25%	100%	33.4 mg/kg and 75.1 µmol/kg	203 mg/kg and 456 µmol/kg	> 300 mg/kg and > 675 µmol/kg	78.4 mg/kg and 176 µmol/kg	> 1000 mg/kg and > 2250 µmol/kg	> 29.9	> 4.9	3.3	> 12.8	25 - 100%	Activity [6]: 50%; Activity [7]: 50%; Activity [10]: 75%; inhibition [28]: 7%; inhibition [29]: 8%; Activity [31]: 100%
COc1cccc(/C=C/C(=O)OC/C=C/c2cc(OC)c(OC)cc2OC)c1	100%	75%	Active	Non-Toxic	50%	inactive	100%	100%	50%	100%	72.9 mg/kg and 190 µmol/kg	247 mg/kg and 643 µmol/kg	249 mg/kg and 647 µmol/kg	> 100 mg/kg and > 260 µmol/kg	> 1000 mg/kg and > 2600 µmol/kg	> 13.7	> 4.1	> 4	> 8.9	25 - 100%	Activity [7]: inactive; Activity [15]: 0%; Activity [18]: 25%; inhibition [28]: inactive; inhibition [29]: inactive
COc1cc(OC)c(OC)cc1/C=C/CO	–	–	Active	Non-Toxic	–	–	–	–	–	–	277 µmol/kg and 62 mg/kg	–	–	–	3070 µmol/kg and 689 mg/kg	11.1	–	–	–	–	Retention_time [32]: 67.5 min
COc1cc(OC)c(/C=C/C(=O)OC/C=C/c2cc(OC)c(OC)cc2OC)c(OC)c1	100%	75%	Active	Non-Toxic	50%	inactive	100%	100%	0%	100%	157 µmol/kg and 69.8 mg/kg	212 mg/kg and 476 µmol/kg	> 300 mg/kg and > 675 µmol/kg	99 mg/kg and 223 µmol/kg	> 2250 µmol/kg and > 1000 mg/kg	> 14.3	> 4.7	3.3	> 10.1	25 - 100%	Activity [4]: Active; Activity [6]: 50%; Activity [33]: 100%; Activity [18]: 25%; inhibition [34]: Active; inhibition [35]: Active
